Read-outs that look alike come from different tables or passages of the source.
Legend:
[1] = tested on: male Wistar rats; assay: Anticonflict action, NaCl-Lick conflict method; assay type: in vivo; conditions: Rattus norvegicus, po, 1 hour before the test; number of licks in 5 minutes of 2% saline; rats deprived of water for 48 hours; read-out: Minimum effective dosage
Procedure: The anticonflict action of the compounds of the general formulae (I), (II), and (III) was evaluated in accordance with the NaCl-Lick conflict method of Tanga et al. (Pharmacol., Biochem., Behav., vol. 32, pp. 773-776, 1989). That is, six-week old male Wistar rats in groups of six to 10 were deprived of water for 48 hours and placed in an experimental apparatus placed in a soundproof box (apparatus made of acrylic resin, 20×20×30 cm, provided with a drinking outlet having a diameter of 1 cm at height of 8 cm from the floor, designed to be able to measure the number of drops per unit hour by a drinkometer), and the anticonflict action of the medicament was evaluated using as an indicator the number of drops (number of licks) in 5 minutes from the start of drinking of 2% saline. The tested medicament was orally administered in an amount of 0.2 ml/100 g body weight 1 hour before the start of the test.

[2] = target: T1, dopamine D2 receptor (Rattus norvegicus, UniProt P61169); assay: Affinity with dopamine D2 receptor, [3H]Raclopride binding; parameters: species or system male Wistar rats; conditions: 1.0 nM [3H]Raclopride, rat corpus striatum preparation, 25° C., 60 minutes
T1 construct: the corpus striatums excised from male Wistar rats were homogenized; from tissue; host or cells: rat corpus striatum membrane homogenate
T1 sequence (P61169 whole entry): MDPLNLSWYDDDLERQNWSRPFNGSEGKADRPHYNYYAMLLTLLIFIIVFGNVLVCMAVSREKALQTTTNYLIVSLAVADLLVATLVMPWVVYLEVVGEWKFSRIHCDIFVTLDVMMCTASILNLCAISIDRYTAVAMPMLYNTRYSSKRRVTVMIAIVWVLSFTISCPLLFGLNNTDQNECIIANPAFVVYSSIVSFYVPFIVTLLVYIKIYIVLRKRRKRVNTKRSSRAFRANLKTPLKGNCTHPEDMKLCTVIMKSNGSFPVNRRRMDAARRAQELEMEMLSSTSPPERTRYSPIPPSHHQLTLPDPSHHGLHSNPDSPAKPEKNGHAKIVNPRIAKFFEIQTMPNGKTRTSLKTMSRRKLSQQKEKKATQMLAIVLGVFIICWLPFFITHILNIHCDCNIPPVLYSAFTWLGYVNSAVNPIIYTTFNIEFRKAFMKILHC
Procedure: The affinity of the compounds of the general formulas (I), (II), and (III) with a dopamine D2 receptor was evaluated in accordance with the method of Kakohler et al. (Biochem. Pharmacol., vol. 34, pp. 2251-2259, 1985). That is, the corpus striatums excised from male Wistar rats were homogenized with the addition of 120 mM sodium chloride, 5 mM potassium chloride, 2 mM calcium chloride, 1 mM magnesium chloride, and 0.01% ascorbic acid contained in 50 mM tris-phosphate buffer (pH 7.7). The homogenate was centrifuged at […] and 35000×g for 10 minutes. The same buffer was added to the resultant precipitate,then this was homogenized again and was similarly centrifuged to obtain the precipitate. The same buffer was added to this precipitate which was then again homogenized to prepare the dopamine D2 receptor.
For the binding experiment, use was made of 1.0 nM of [3H]3,5-dichloro-N-[(1-ethyl-2-pyrrolidinyl)methyl]-6-hydroxy-o-anisamide (Raclopride), various concentrations of test samples were added to a system of 0.34 mg/ml of protein or a total of 0.25 ml, incubation was performed at 25° C. for 60 minutes, then the radioactivity was measured in the same way as in the Evaluation Example 1 to find the degree of binding.
The 50% inhibiting concentration of binding affinity (IC50) was calculated from the degrees of binding at various concentrations of the added samples. […] The IC50 values of typical compounds are shown together with the IC50 values for the serotonin receptor.

[3] = target: T2, serotonin 5-HT1A receptor (Rattus norvegicus, UniProt P19327); assay: Affinity with serotonin receptor, [3H]8-OH-DPAT binding; parameters: species or system male Wistar rats; conditions: for D2/5-HT1A: ratio of IC50 (D2) to IC50 (5-HT1A)
T2 construct: the hippocampuses extracted from male Wistar rats were homogenized; from tissue; host or cells: rat hippocampus membrane homogenate
T2 sequence (P19327 1-422): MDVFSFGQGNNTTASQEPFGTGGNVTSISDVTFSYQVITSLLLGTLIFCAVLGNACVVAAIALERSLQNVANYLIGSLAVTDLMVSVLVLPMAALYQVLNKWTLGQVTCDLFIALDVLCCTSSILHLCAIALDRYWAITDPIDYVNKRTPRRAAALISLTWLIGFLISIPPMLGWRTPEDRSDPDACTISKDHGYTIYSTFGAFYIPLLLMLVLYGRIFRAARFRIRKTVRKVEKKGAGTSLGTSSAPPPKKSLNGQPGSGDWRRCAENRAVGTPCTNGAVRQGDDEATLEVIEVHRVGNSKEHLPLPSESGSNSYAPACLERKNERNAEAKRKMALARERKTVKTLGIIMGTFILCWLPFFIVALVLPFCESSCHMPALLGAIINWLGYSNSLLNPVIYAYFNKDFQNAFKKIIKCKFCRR
Procedure: The affinity of the compounds of the general formulas (I), (II), and (III) with a serotonin receptor was evaluated in accordance with the method of S. T. Peuroutka et al. (J. Neurochem., vol. 47, pp. 529-540, 1986). That is, the hippocampuses extracted from male Wistar rats were homogenized while adding 50 mM tris-phosphate buffer (pH 7.7). The homogenate was centrifuged at […] and 40000×g for 10 minutes. The same buffer was added to the obtained precipitate, then this was homogenized again and was similarly centrifuged to obtain the precipitate. This homogenization-centrifugation operation was repeated two times to obtain a final precipitate to which was then added 10 uM of N-methyl-N-2-propynylbenzylamine (Pargyline), 4 mM of calcium chloride, and 0.1% ascorbic acid contained in a 50 mM tris-phosphate buffer (ph 7.7). This was then homogenized to prepare the serotonin receptor.
For the binding experiment, 0.4 nM of [3H]2-di-n-propylamino-8-hydroxy-1,2,3,4-tetrahydronapthalene (8-DPAT; 8-hydroxy-N,N-dipropyl-2-aminotetetrilin) was used, various concentrations of test samples were added to a system of 0.25 mg/ml of protein or a total of 0.25 ml, and these were incubated at 25° C. for 30 minutes. A Whatman GF/C filter was used to filter each of the reaction solutions, then the filter was washed by 20 mM tris-phosphate buffer (pH 7.7). The serotonin receptor was trapped by the filter and the radio activity of the 8-OH-DAPT bonded to it was measured to find the degree of binding. The 50% inhibiting concentration of binding affinity (IC50) was calculated from the degrees of binding in the various sample concentrations. […] The IC50 values of typical compounds are shown together with the IC50 values with respect to the dopamine D2 receptor.

[4] = tested on: Wistar male rats; assay: Ischemic brain tissue damage, transient right middle cerebral artery occlusion (MCAO) model; assay type: in vivo; conditions: Rattus norvegicus, sc, 240 h; s.c., immediately after occlusion; 60 minutes occlusion; brain tissue damage 10 days after restart of blood flow (number of benzodiazepine bindings); read-out: Minimum effective dosage
Procedure: The evaluation of the efficacy on ischemic brain damage of the compounds of the general formulae (I), (II), and (III) was performed using the transient right middle cerebral artery occlusion (MCAO) model of Koizumi et al. (Jap. J. Stroke, vol. 8, pp. 1 to 8, 1986). That is, 10 to 11 week old Wistar male rats were used and the right middle cerebral artery was temporarily obstructed for 60 minutes. 10 days after the restart of the blood flow, the brains were excised and the degree of brain tissue damage of the cerebral cortex and corpus striatum of the obstructed side were evaluated by the damage marker of the number of benzodiazepine bindings. The tested drugs were dissolved in physiological saline and administered subcutaneously at the backs of the rats immediately after the right middle cerebral artery occlusion. As a control, physiological saline of […] body weight was similarly administered.

[5] = Acute toxicity after oral administration; conditions: rat, in vivo; 24 hours after oral administration, six-week old male rats
From the text: This value is over 50 times or more of the expected clinical dosage and therefore, it is judged that the safety of the compounds according to the present invention is high.

[6] = 0.4 nM [3H]8-OH-DPAT, rat hippocampus preparation, 25° C., 30 minutes, read-out: IC50 (5-HT1A)

| melting point [°C] | IC50 [3, 6] [nM] | Structure (SMILES) | minimal effective dose [1] [mg/kg] | IC50 [2] [nM] | D2/5-HT1A [3] | minimal effective dose [4] [mg/kg] | IC50 [3] [nM] | LD50 at 24 h [5] [mg/kg] |
| --- | --- | --- | --- | --- | --- | --- | --- | --- |
| 150 to 151 | – | O=C1c2ccccc2OC=CN1CCCCN1CCN(c2ccccn2)CC1 [Example 32, 4,5-dihydro-4-(4-(4-(2-pyridyl)piperazin-1-yl)butyl)-1,4-benzoxazepin-5-one] | 30 | – | – | – | – | – |
| 156 to 158 | – | COc1ccc2c(c1)OC=CN(CCCCN1CCN(c3ncccn3)CC1)C2=O [Example 33, 4,5-dihydro-8-methoxy-4-(4-(4-(2-pyrimidinyl)piperazin-1-yl)butyl)-1,4-benzoxazepin-5-one] | 10 | – | – | – | – | – |
| 141 to 142 | – | CC1=COc2ccccc2C(=O)N1CCCCN1CCN(c2ncccn2)CC1 [Example 34, 4,5-dihydro-3-methyl-4-(4-(4-(2-pyrimidinyl)piperazin-1-yl)butyl)-1,4-benzoxazepin-5-one] | 30 | – | – | – | – | – |
| 166 to 168 | 1.5 | CC1=COc2ccccc2C(=O)N1CCCCN1CCN(c2cccc(Cl)n2)CC1 [Example 35, 4-(4-(4-(2-chloropyridin-6-yl)piperazin-1-yl)butyl)-4,5-dihydro-3-methyl-1,4-benzoxazepin-5-one] | – | 294 | 196 | – | – | – |
| 113 to 115 | – | CC1=COc2cc(C)ccc2C(=O)N1CCCCN1CCN(c2cccc(C)c2)CC1 [Example 37] | – | – | – | – | – | – |
| 88 to 90 | – | COc1ccccc1N1CCN(CCCCN2C(=O)c3ccc(C)cc3OC=C2C)CC1 [Example 38, 4,5-dihydro-3,8-dimethyl-4-(4-(4-(2-methoxyphenyl)piperazin-1-yl)butyl)-1,4-benzoxazepin-5-one] | – | – | – | – | – | – |
| 243 to 245 | – | CC1=COc2ccc(C)cc2C(=O)N1CCCCN1CCN(c2ncc(F)c(N)n2)CC1 [Example 40, 4-(4-(4-(4-amino-5-fluoropyrimidin-2-yl)piperazin-1-yl)butyl)-4,5-dihydro-3,7-dimethyl-1,4-benzoxazepin-5-one] | – | – | – | – | – | – |
| – | 0.77 | O=C1c2ccccc2OC=C(Cl)N1CCCCN1CCN(c2ccccn2)CC1 [Example 46, 3-chloro-4,5-dihydro-4-(4-(4-(2-pyridyl)piperazin-1-yl)butyl)-1,4-benzoxazepin-5-one] | 10 | 51 | 67 | 0.3 | – | – |
| – | 1.2 | O=C1c2ccc(Cl)cc2OC=C(Cl)N1CCCCN1CCN(c2ccccn2)CC1 [Example 48, 3,8-dichloro-4,5-dihydro-4-(4-(4-(2-pyridyl)piperazin-1-yl)butyl)-1,4-benzoxazepin-5-one] | 30 | 233 | 194 | 1 | – | – |
| – | – | O=C1c2ccccc2OC=C(Cl)N1CCCCN1CC=C(c2ncccn2)CC1 [Example 56, 3-chloro-4,5-dihydro-4-(4-(4-(2-pyrimidinyl)-1,2,5,6-tetrahydropyridin-1-yl)butyl)-1,4-benzoxazepin-5-one] | – | 494 | 358 | 1 | 1.38 | ≥ 100 |
| – | – | O=C1c2ccc(Cl)cc2OC=C(Cl)N1CCCCN1CC=C(c2ncccn2)CC1 [Example 59, 3,8-dichloro-4,5-dihydro-4-(4-(4-(2-pyrimidinyl)-1,2,5,6-tetrahydropyridin-1-yl)butyl)-1,4-benzoxazepin-5-one] | – | 341 | 525 | 1 | 0.65 | – |
| – | 1.11 | O=C1c2ccc(Cl)cc2OC=C(Cl)N1CCCCN1CCC(c2ncccn2)CC1 [Example 60, 3,8-dichloro-4,5-dihydro-4-(4-(4-(2-pyrimidinyl)piperidin-1-yl)butyl)-1,4-benzoxazepin-5-one] | – | 1280 | 1153 | 1 | – | – |
| – | – | COc1ccc2c(c1)OC=C(Cl)N(CCCCN1CC=C(c3ncccn3)CC1)C2=O [Example 61, 3-chloro-4,5-dihydro-8-methoxy-4-(4-(4-(2-pyrimdinyl)-1,2,5,6-tetrahydropyridin-1-yl)butyl)-1,4-benzoxazepin-5-one] | – | 256 | 376 | 1 | 0.68 | – |
| – | – | CC1=COc2ccccc2C(=O)N1CCCCN1CC=C(c2ccccn2)CC1 [Example 84, 4,5-dihydro-3-methyl-4-(4-(4-(2-pyridyl)-1,2,5,6-tetrahydropyridin-1-yl)butyl)-1,4-benzoxazepin-5-one] | – | – | – | 0.3 | – | – |

| Structure (SMILES) | melting point [°C] | IC50 [3, 6] [nM] | minimal effective dose [1] [mg/kg] | IC50 [2] [nM] | D2/5-HT1A [3] | minimal effective dose [4] [mg/kg] | IC50 [3] [nM] | LD50 at 24 h [5] [mg/kg] |
| --- | --- | --- | --- | --- | --- | --- | --- | --- |
| O=C1c2ccccc2OC=C(Cl)N1CCCCN1CC=C(c2ccccn2)CC1 [Example 82] | – | 0.47 | 30 | 128 | 84 | 0.3 | – | – |

— US6337397B1, “Pyrimidine derivatives and their salts, useful for making benzoxazepine derivatives” (Suntory Limited, priority 1995, dated 2002)
